Measured values published in US20260284240A1, “RADIOLABELED COMPOUND FOR USE IN A METHOD OF TREATING CARBONIC ANHYDRASE IX POSITIVE DISEASES” (DEBIOPHARM INTERNATIONAL S.A., priority 2023, published 2026).
Like-named read-outs stand apart in the source and are kept apart here. Starred links: 1 amine or outer side, 2 acyl side, 3 side chain; linkers in the order of their positions; H or OH if unused. Positions of bridges follow the written chain, without caps; N, C: chain ends. Non-standard residues stand in square brackets, D forms with d. Residues, ends and D or L forms follow the SMILES beside them. *: point of attachment. Phe(3-NHCO(CH2)3SO2NH2) = N[C@@H](Cc1cccc(NC(=O)CCCS(N)(=O)=O)c1)C(=O)O; DOTA = O=C(O)CN1CCN(CC(=O)O)CCN(CC(=O)*)CCN(CC(=O)O)CC1; mXylylene = c1cc(C[*:1])cc(C[*:2])c1; X1 = O=C(CN1CCN([*:1])CC1)[*:2]

Assays:
[1] = Functional observation battery (FOB), central nervous system, in dogs; format: in vivo; conditions: dog, FOB 1 hour after dosing
Source text: (§1) The test item treatment led to unaffected body weights, weight gains, and food intake. Likewise, no treatment-related abnormalities were reported during ophthalmic examinations, urinalysis, blood biochemistry, coagulation, and hematology investigations. There were no related organ weight changes and macroscopic and microscopic observations at early and late necropsies. Jacketed external telemetry was used to evaluate the potential cardiovascular and respiratory effects in the Subset B. Cardiorespiratory telemetry recordings were performed during the pre-test, Day 1 and 14. […] Arterial blood pressure parameters (systolic and diastolic blood pressure and mean arterial pressure) were measured continuously during consecutive 30-minute periods at pre-dose and for up to 6 h after dosing and over consecutive 60-minute periods up to 24 h after dosing. The respiratory rate was monitored on the pre-test, Day 1 and Day 14 at 0.5, 1, 2, 3, 4, 6, 8, 12, 16, 20, and 24 h. […] The potential effects on central nervous system parameters were evaluated under restrained and non-restrained conditions using a FOB in Subset A. Neurologic, autonomic, and behavioral investigations were performed in the pre-test, pre-dose, and 1 hour after dosing on Day 1.

[2] = Cardiovascular and respiratory safety pharmacology (jacketed external telemetry) in dogs; format: in vivo; conditions: dog, any dose or timepoint
Source text: as §1

[3] = Toxicokinetics in the extended single-dose toxicity study in dogs; format: in vivo, dog; conditions: for concentration at 5 min: plasma, iv, read-out: C5 min; for concentration at 5 min / AUClast / CL / Vss: mean n = 3; for t1/2: harmonic mean
Procedure: The following parameters and endpoints were evaluated: mortality, clinical observations, body weights, food consumption, body temperature, local reactions, ophthalmology, clinical pathology parameters (hematology, coagulation, clinical chemistry, and urinalysis), cardiovascular and respiratory safety pharmacology endpoints along with FOB evaluation, organ weights, and macroscopic and microscopic examinations, and TK parameters. The animals from subset A (3 males and 3 females per group) were sampled for toxicokinetics (TK) at: pre-dose, 5 min, 15 min, 30 min, 1 h, 2 h, 3 h and 6 h. Blood samples were collected in K2EDTA tubes. Plasma was prepared by centrifugation (2500 g for 10 minutes, +4° C.) within 1 hour after collection, and then frozen within 1 hour after centrifugation and stored at −80° C. […] Chromatographic separation was achieved using a Waters Acquity UPLC system with a Waters Acquity HSS T3 C18 2.1×50 mm, 1.8 μm column. Chromatography was conducted at 50° C. at a flow rate of 0.7 mL/min using a mobile phase consisting of A: 1% formic acid in acetonitrile, and B: 1% formic acid in water, according to the following linear gradient: 0 to 0.1 min: 90% B; 0.1 to 4.1 min: from 90% B to 74% B; 4.1 to 4.2 min: from 74% B to 5% B; 4.2 to 4.6 min: 5% B; 4.6 to 4.7 min: from 5% B to 90% B; 4.7-5.1 min; 90% B. Detection was performed using a Sciex AP16600 TOF mass spectrometer. Toxicokinetic parameters were estimated from concentration-time data using Phoenix pharmacokinetic software (version 6.4, Certara L.P.). A non-compartmental approach consistent with the bolus intravenous injection was used for parameter estimation.

[4] = Dose range finding toxicity study by i.v. bolus in male beagle dogs; format: in vivo, dog; conditions: i.v. bolus up to 800 μg/kg
Procedure: The following parameters and endpoints were evaluated: mortality, clinical observations, body weights, food consumption, local reactions, clinical pathology parameters (hematology, coagulation, and clinical chemistry), organ weights, and macroscopic examinations. Both animals were sampled for toxicokinetics (TK) on each dosing occasion (i.e., on day 1, day 5, day 9 and day 13) at: pre-dose, 15 min, 30 min, 1 h, 6 h and 24 h. Blood samples were collected in K2EDTA tubes. Plasma was prepared by centrifugation (2500 g for 10 minutes, +4° C.) within 1 hour after collection, and then frozen within 1 hour after centrifugation and stored at −80° C. […] Chromatographic separation was achieved using a Waters Acquity UPLC system with a Waters Acquity HSS T3 C18 2.1×50 mm, 1.8 μm column. Chromatography was conducted at 50° C. at a flow rate of 0.7 mL/min using a mobile phase consisting of A: acetonitrile, and B: 1% formic acid in water, according to the following linear gradient: 0 to 0.1 min: 90% B; 0.1 to 4.1 min: from 90% B to 74% B; 4.1 to 4.2 min: from 74% B to 5% B; 4.2 to 4.6 min: 5% B; 4.6 to 4.7 min: from 5% B to 90% B; 4.7-5.1 min; 90% B. Detection was performed using a Sciex AP16600 TOF mass spectrometer. Toxicokinetic parameters were estimated from concentration-time data using Phoenix pharmacokinetic software (version 6.4, Certara L.P.). […]

[5] = female beagle dogs, single i.v. bolus 16 μg/kg
[6] = female beagle dogs, single i.v. bolus 80 μg/kg
[7] = female beagle dogs, single i.v. bolus 400 μg/kg
[8] = male beagle dogs, single i.v. bolus 16 μg/kg
[9] = male beagle dogs, single i.v. bolus 80 μg/kg
[10] = male beagle dogs, single i.v. bolus 400 μg/kg

CC(C)C[C@@H]1NC(=O)[C@H](Cc2cccc(NC(=O)CCCS(N)(=O)=O)c2)NC(=O)[C@H](CC(=O)O)NC(=O)[C@H]2CCCN2C(=O)[C@H](CCC(=O)O)NC(=O)[C@@H](NC(=O)[C@H](CCC(N)=O)NC(=O)CN2CCN(C(=O)CN3CCN(CC(=O)O)CCN(CC(=O)O)CCN(CC(=O)O)CC3)CC2)CSCc2cccc(c2)CSC[C@@H](C(N)=O)NC(=O)[C@H](CO)NC(=O)[C@H](Cc2c[nH]c3ccccc23)NC(=O)[C@H]([C@@H](C)O)NC1=O [DPI-4452, DOTA-PPAc-Gln-[Cys(3MeBn)-Glu-pro-Asp-Af3(Cpsu)-Leu-Thr-Trp-Ser-Cys]-NH2] ({DOTA}-[X1]QCE[dP]D[Phe(3-NHCO(CH2)3SO2NH2)]LTWSC-NH2; linker 3-12 via mXylylene)
Central nervous system (neurologic, autonomic, behavioral domains) [1]: No effects were observed on the central nervous system | Cardiovascular or respiratory parameters (heart rate, arterial blood pressure, ECG, respiratory rate) [2]: no related effect on cardiovascular or respiratory parameters | Exposure difference between male and female dogs ([3]; all dose levels): No appreciable difference | Mean AUCtlast at the NOAEL, females ([3]; dog, 400 μg/kg i.v.): 771 ng·h/mL | Mean AUCtlast at the NOAEL, males ([3]; dog, 400 μg/kg i.v.): 854 ng·h/mL | concentration at 5 min ([3]; dog, 0.08 mg/kg, female beagle dogs, single i.v. bolus 80 μg/kg): 346 ng/mL | concentration at 5 min ([3]; dog, 0.08 mg/kg, male beagle dogs, single i.v. bolus 80 μg/kg): 332 ng/mL | concentration at 5 min ([3]; dog, 0.4 mg/kg, female beagle dogs, single i.v. bolus 400 μg/kg): 1760 ng/mL | concentration at 5 min ([3]; dog, 0.4 mg/kg, male beagle dogs, single i.v. bolus 400 μg/kg): 1840 ng/mL | concentration at 5 min ([3]; dog, […], female beagle dogs, single i.v. bolus 16 μg/kg): 37.7 ng/mL | concentration at 5 min ([3]; dog, […], male beagle dogs, single i.v. bolus 16 μg/kg): 43.5 ng/mL | t1/2 [3, 5]: 14.3 min | AUClast [3, 5]: 12.4 ng·h/mL | CL [3, 5]: 21.2 mL/min/kg | Vss [3, 5]: 0.30 L/kg | t1/2 [3, 6]: 23.2 min | AUClast [3, 6]: 144 ng·h/mL | CL [3, 6]: 9.27 mL/min/kg | Vss [3, 6]: 0.21 L/kg | t1/2 [3, 7]: 21.8 min | CL [3, 7]: 8.63 mL/min/kg | Vss [3, 7]: 0.19 L/kg | t1/2 [3, 8]: 15.5 min | AUClast [3, 8]: 14.0 ng·h/mL | CL [3, 8]: 18.3 mL/min/kg | Vss [3, 8]: 0.26 L/kg | t1/2 [3, 9]: 21.7 min | AUClast [3, 9]: 132 ng·h/mL | CL [3, 9]: 10.1 mL/min/kg | Vss [3, 9]: 0.21 L/kg | t1/2 [3, 10]: 23.7 min | CL [3, 10]: 7.88 mL/min/kg | Vss [3, 10]: 0.19 L/kg | Tolerability [4]: well tolerated systemically and locally
